Columns and labels:
[1] = MTT cytotoxicity assay, A549 cells; assay type: cell-based; conditions: human, mean ± SD (n = 3)
Method: (§1) Compounds 1–7 were testeded for their cytotoxity against A549 (human lung adenocarcinoma), HeLa (human cervical carcinoma) and HepG2 (human liver hepatocellular carcinoma) cell lines. The three tumor cell lines were obtained from Kunming Institute of Zoology, Chinese Academy of Sciences. The cytotoxic activity of tested chemicals were assayed according to the MTT method using 96 well plates. Briefly, the cells were cultured in RPMI-1640 medium, supplemented with 10% fetal bovine serum in a humidified atmosphere with 5% CO2 at 37 °C. 100 μL adherent cells at the density of 5 × 10^4 cell/mL was seeded into each well of 96-well cell culture plates and incubated in 5% CO2 at 37 °C for 24 h to form a monolayer on the flat bottoms. Then, the supernatant per well was removed and subsequently added with 100 μL fresh medium and 100 μL medium containing a test compound. The plate was then incubated in 5% CO2 at 37 °C. After 72 h, 20 μL of 5 mg/mL MTT in DMSO was added into each well and incubated for 4 h. The supernatant per well was carefully removed and 150 μL DMSO was added. The plate was then vortex shaken for 15 min to dissolve blue formazan crystals. The optical density (OD) of each well was measured on a Genois microplate reader (Tecan GENios, Männedorf, Switzerland) at the wavelength of 570 nm. All experiments were performed in triplicate and adriamycin was used as a positive control. In each experiment, each of the tumor cell lines was exposed to the test compound at concentrations 50, 25, 12.5, 6.25, 3.125, 1.5625 µg/mL. The inhibitory rate of cell growth was calculated according to the following formula: Inhibition rate (%) = (ODcontrol − ODtreated)/ODcontrol × 100%. IC50 values were calculated by SPSS 16.0 statistic software. The values were based on three individual experiments and expressed as means ± standard deviation (SD).

[2] = MTT cytotoxicity assay, HeLa cells; assay type: cell-based; conditions: human, mean ± SD (n = 3)
Method: as §1

[3] = MTT cytotoxicity assay, HepG2 cells; assay type: cell-based; conditions: human, mean ± SD (n = 3)
Method: as §1

[4] = biological target: α-glucosidase; assay: α-Glucosidase inhibition assay (PNPG substrate); assay type: biochemical; conditions: pH 6.8, 37 °C, read-out: α-glucosidase inhibitory activity IC50
Method: The a-glucosidase inhibitory activity of 1–7 were determined spectrophotometrically in a 96-well microtiter plate based on p-nitrophenyl-α-D-glucopyranoside (PNPG) as a substrate following the method described in literature with slight modifications. In brief, α-glucosidase (20 μL, 0.8 U/mL) and various concentrations (500, 250, 125, 62.5, 31.25, 15.625 µg/mL) of tested compounds (120 μL) in 67 mM phosphate buffer (pH 6.8) were mixed at room temperature for 10 min. Reactions were initiated by addition of 5.0 mM PNPG (20 μL). The reaction mixture was incubated for 15 min at 37 °C in a final volume of 160 μL. Then, 0.2 M Na2CO3 (80 μL) was added to the incubation solution to stop the reaction. The activities were detected in a 96-well plate, and the absorbance was determined at 405 nm (for p-nitrophenol). The negative blank was set by adding phosphate buffer instead of the sample via the same way as the test. […] The blank was set by adding phosphate buffer instead of the α-glucosidase using the same method. Inhibition rate (%) = [(ODnegative control − ODblank) − (ODtest − ODtest blank)]/(ODnegative blank − ODblank) × 100%. IC50 values of the samples were calculated using the Microsoft Office Excel soft.

[5] = MTT cytotoxicity, summary statements over the three cell lines; assay type: cell-based, human; conditions: human, A549, HeLa and HepG2 cells (range over the three cell lines)
Method: as §1

[6] = test system: human tumor A549, HeLa and HepG2 cell lines; assay: as above; assay type: cell-based; conditions: A549, HeLa and HepG2
Method: as §1

[7] = range over A549, HeLa and HepG2 and over both compounds, read-out: Cytotoxicity IC50 values, range over all three cancer cell lines
[8] = range over the three cell lines and over both compounds, as given in abstract, read-out: Cytotoxicity IC50 values, range over A549, HeLa and HepG2

IC50 [4] [µM]	SMILES	IC50 at 72 h [1] [µM]	IC50 at 72 h [2] [µM]	IC50 at 72 h [3] [µM]	IC50 at 72 h [5, 7] [µM]	IC50 at 72 h [5, 8] [µM]	In vitro cytotoxicity, result in words [6]
47	CC1(C)CC[C@]2(C(=O)O)CC[C@]3(C)C(=CCC4[C@@]5(C)C[C@@H](O)[C@H](O)[C@@](C)(C=O)C5CC[C@]43C)C2C1 (stereo partly drawn) [Compound 5, 2α,3β-dihydroxy-23-oxo-olean-12-en-28-oic acid]	30.2 ± 4.55	22.7 ± 1.96	38 ± 7.57	22.7 to 38.1	23 to 38	moderate in vitro cytotoxicity
220	C=C1CC[C@]2(C(=O)O)CC[C@]3(C)C(=CCC4[C@@]5(C)C[C@@H](O)[C@H](O)[C@@](C)(C=O)C5CC[C@]43C)C2C1 (stereo partly drawn) [Compound 6, 2α,3β-dihydroxy-23-oxo-30-norolean-12,20 (29)-dien-28-oic acid]	> 100	> 100	> 100	–	–	–
40	CC1(C)CC[C@]2(C(=O)O)CC[C@]3(C)C(=CC[C@@H]4[C@@]5(C)C[C@@H](O)[C@H](O)[C@@](C)(CO)[C@@H]5CC[C@]43C)[C@@H]2C1 [Compound 7, arjunolic acid]	33.6 ± 3.13	24.4 ± 1.49	38.1 ± 1.63	22.7 to 38.1	23 to 38	moderate in vitro cytotoxicity
